Active and inactive are the calls of the source. The calls are words filed in the database; no cut-off is given here.
Legend:
Mus musculus = species on record: Mus musculus; test: Displacement of [3H]TPA from TPA receptor in ICR mouse dorsal epidermis
[1] = Cytotoxicity against human Raji cells assessed as cell viability at 100 molar ratio; format: cell-based; conditions: read-out: Activity
[2] = Cytotoxicity against human Raji cells assessed as cell viability at 500 molar ratio; format: cell-based; conditions: read-out: Activity
[3] = Cytotoxicity against human Raji cells assessed as cell viability at 1000 molar ratio; format: cell-based; conditions: read-out: Activity
Raji [4] = test: Inhibition of TPA-induced EBV-early antigen activation in human Raji cells at 100 molar ratio after 48 hrs by indirect immunofluorescence technique relative to TPA; format: cell-based; conditions: human gammaherpesvirus 4
[5] = Cytotoxicity against human Raji cells assessed as cell viability at 10 molar ratio; format: cell-based; conditions: read-out: Activity
Raji [6] = test: Inhibition of TPA-induced EBV-early antigen activation in human Raji cells at 500 molar ratio after 48 hrs by indirect immunofluorescence technique relative to TPA; format: cell-based; conditions: human gammaherpesvirus 4
Raji [7] = test: Inhibition of TPA-induced EBV-early antigen activation in human Raji cells at 10 molar ratio after 48 hrs by indirect immunofluorescence technique relative to TPA; format: cell-based; conditions: human gammaherpesvirus 4

Compound	Activity (Mus musculus)	viability at 100 molar ratio [1] [%]	viability at 500 molar ratio [2] [%]	viability at 1000 molar ratio [3] [%]	EBV-EA activation % of TPA control (Raji [4]) [%]	viability at 10 molar ratio [5] [%]	EBV-EA activation % of TPA control (Raji [6]) [%]	EBV-EA activation % of TPA control (Raji [7]) [%]
CCCCCCCCCCCCCC(=O)O[C@@H]1[C@@H](C)[C@@]2(O)[C@@H](C=C(CO)C[C@]3(O)C(=O)C(C)=C[C@@H]23)[C@@H]2C(C)(C)[C@]12OC(C)=O	Active	–	–	–	–	–	–	–
COc1cccc2c1C(=O)c1ccc3c(c1C2=O)OCO3	inactive	> 80	> 80	> 80	33	> 80	32.7	100
Cc1ccnc2c1C(=O)c1c(O)ccc(O)c1C2=O	inactive	> 80	60	60	52.1	> 80	23.1	88.6
CC(=O)c1cc2c(o1)C(=O)c1ccccc1C2=O [NAPABUCASIN]	inactive	70	0	0	0	> 80	0	32.7
CC(C)=CC[C@@H](O)C1=CC(=O)c2c(O)ccc(O)c2C1=O [SHIKONIN]	inactive	50	10	0	15.8	> 80	0	31.5
Cc1ccc2c(n1)C(=O)c1c(O)ccc(O)c1C2=O	inactive	> 80	60	10	43.8	> 80	13.5	86
O=C1c2ccc3c(c2C(=O)c2cccc(O)c21)OCO3	inactive	> 80	> 80	> 80	53.8	> 80	36.5	79.5
CN(C)C1=CC(=O)c2ccccc2C1=O	–	> 80	> 80	> 80	92.5	> 80	89.2	100

From ChEMBL document CHEMBL1147306, “Studies on inhibitors of skin tumor promotion, VI. Inhibitory effects of quinones on Epstein-Barr virus activation” (J Nat Prod, 1989)
